Laboratory results reported in paper PMC8263619, “Functional characteristics of a novel odorant binding protein in the legume pod borer, Maruca vitrata” (Scientific Reports, 2021).

Key:
MvitOBP3 protein = assay: Fluorescence competitive binding assay with 1-NPN probe; set-up: species or system Maruca vitrata; conditions: recombinant MvitOBP3, 1-NPN fluorescent probe; for IC50: read-out: IC50, ligand concentration displacing 50% of the fluorescence intensity of the MvitOBP/N-phenyl-1-naphthylamine complex; for Ki: read-out: Ki, dissociation constant
Protocol: The fluorescence measurement takes advantage of the fluorescent properties of the dye, 1-NPN (N-Phenyl-1-naphthylamine, CAS 90-30-2) and is performed by Hitachi F-4500. The wavelength of excitation light was 337 nm, the range of scanning emission wavelength was 350–500 nm, and the slit width was 5 nm. […] Add 2 mL of the protein with a final concentration of 2 μmol/L to a 1 cm, four-sided quartz cup, then add 1-NPN (1 mM/L) to the final concentration is 2–24 μmol/L. And recorded the maximum fluorescence value and determine the protein dissociation constant K1-NPN.
In fluorescence competitive binding assay, the 1-NPN was used as the fluorescent probe, and the dissociation constant (Ki) values of the MvitOBP3/1-NPN complexes were calculated according to the changes in the fluorescence intensity (Fig. 5A). […] These seventeen volatile ligands from host-plant were selected to test binding affinities of MvitOBP3 (Fig. 5 and Table 2).

MvitGOBP1 = molecular target: MvitGOBP1; set-up: method as in PMID 26517714; conditions: cited from earlier work
MvitGOBP2 protein = molecular target: MvitGOBP2 protein; set-up: method as in PMID 26517714; conditions: cited from earlier work

| SMILES | IC50 (MvitOBP3 protein) [µM] | Ki (MvitOBP3 protein) [µM] | Ki (MvitGOBP1) [µM] | Ki (MvitGOBP2 protein) [µM] |
| --- | --- | --- | --- | --- |
| CCc1ccc(C(C)=O)cc1 [1-(4-ethylphenyl)-ethanone] | 24.1 | 21.3 | – | – |
| CC(=O)c1ccc(O)c(C)c1 [4-hydroxy-3-methylacetophenone] | 22.7 | 20.1 | – | – |
| CCc1ccc(CC)cc1 [1,4-diethylbenzene] | 29.3 | 25.9 | – | – |
| CC(=O)c1ccc(C)cc1C [1-(2,4-Dimethylphenyl)-ethanone] | 21.4 | 18.9 | – | – |
| CC(=O)c1ccc(C(C)=O)cc1 [1,4-diacetyl benzene] | 28.4 | 25.1 | – | – |
| C=C(C)C1CC=C(C)CC1 (stereo not shown) [Limonene] | 9.4 | 8.31 | 13.8 | – |
| CCCCOC(=O)CCC [Butanoic acid butyl ester] | 11.1 | 9.79 | 12.5 | – |
| O=Cc1ccccc1 [Benzaldehyde] | 43.3 | 38.3 | – | – |
| O=Cc1ccccc1O [2-hydroxybenzaldehyde] | 24.2 | 21.4 | – | – |
| Cc1cc(C)cc(C(C)(C)C)c1 [1-(1,1-Dimethylethyl)-3,5-dimethylbenzene] | 21.8 | 19.3 | – | – |
| CCc1cccc(CC)c1 [1,3-diethylbenzene] | 33.6 | 29.7 | – | – |
| CCCCCCCCOC(=O)CCC [Butanoic acid octyl ester] | 21.2 | 18.7 | – | 8.5 |
| Oc1cccc2[nH]ccc12 [1H-indol-4-ol] | 12.6 | 11.2 | 10.9 | – |
| CCC(=O)c1ccc(CC)cc1 [4-ethylpropiophenone] | 26.7 | 23.6 | 14.2 | – |
| CC(=O)c1ccccc1 [Acetophenone] | 41.8 | 37 | – | – |
| CC(C=O)Cc1ccccc1 (stereo not shown) [2-methyl-3-phenylpropanal] | 10.6 | 9.38 | – | 3.81 |
| CCc1ccc(C=O)cc1 [4-ethylbenzaldehyde] | 22.8 | 20.1 | – | – |
